Assay results taken from patent US9376470B2, “Polypeptide having angiogenesis-inducing activity and antibacterial activity, and use thereof for medical purposes” (FunPep Inc., priority 2008, dated 2016).
Peptide text beside a SMILES is read from it.

Columns and labels:
[1] = test system: Crl:CD (SD) rats, cut wound; test: Effect to heal cut wounds, rat cut-wound model; assay type: in vivo; conditions: for wound closing tension: 10, 100 and 1000 μg/mL, 50 μL dropwise once a day, measured on day 6; for scars of cut wounds / cicatrization by visual observation, compared with the bFGF formulation: rat cut-wound model, data not shown
Protocol: Next, using rat cut-wound model, the effect of the five polypeptides SR-1 to 5 to heal cut wounds in vivo was evaluated. As described in Tetsuaki Yamaura et al. (Oyo Yakuri (Pharmacometrics) 22, 565-579 (1981)), the rat cut-wound model was produced and the wound closing tension was measured. That is, a cut wound of 30 to 36 mm was made on the back of Crl:CD (SD) rats (male, 7-week old, obtained from Charles River Laboratories Japan, Inc.) using a safety razor, and sutured at 3 points equally spaced. The day when this surgical treatment was applied was regarded as […] (day 0). […] Additions of 50 μL physiological saline were regarded as negative controls (Saline). […] The sutures were removed day 3, and the wound closing tension was measured on day 6.

[2] = in vitro; assay type: in vitro ADME, rat; conditions: for half-life: rat serum, 37° C.
Protocol: Then, the stability of five polypeptides SR-1 to 5 in serum was evaluated.
In human serum (purchased from KAC Co., Ltd.), or in rat serum obtained by collecting blood from a rat, then leaving the collected blood to stand at room temperature followed by centrifugation, each of the peptides was dissolved so as to attain a final concentration of 500 μg/mL, and the obtained solutions were left to stand at 37° C. After leaving to stand for 10 min or 30 min or 60 min, these solutions were subjected to HPLC chromatogram analysis to detect peaks of the decomposition products, and calculate the ratio of the concentration of the peptides which remained in the solutions relative to the starting concentration. In addition, the half-lives of the peptides in serum were also calculated.
HPLC chromatogram analysis conditions are as follows.

[3] = test system: Staphylococcus aureus ATCC29213; test: Antibacterial activity, ATP assay (BacTiter-Glo); assay type: cell-based; conditions: for antibacterial activity against Staphylococcus aureus compared with AG30-5C: 10 μg/mL, ATP assay; for ATP (%) mean, Staphylococcus aureus: Table 4-1, ATP assay concentration: peptides 10, TOB 1.0, OX 0.5 μg/ml
Protocol: (§1) The antibacterial activity of the polypeptides was measured using an ATP assay method. That is, using BacTiter-Glo Microbial Cell Viability Assay kit available from PROMEGA, the antibacterial activity of the peptides was evaluated from the viability of bacteria. […] With respect to the strains, Staphylococcus aureus ATCC29213 (S. aureus ATCC29213) as Gram-positive bacteria, or, alternatively, Pseudomonas aeruginosa (P. aeruginosa ATCC27853) as Gram-negative bacteria, was used. The bacteria were cultured in media for 3 to 4 hours, and thereafter absorbances at A600 were measured. Bacterial suspensions were diluted with Mueller-Hinton broth (MHB) according to McFarland #0.5. Each strain was added so as to attain about 0.5−1×10^5 CFU/mL (final concentration) in terms of Escherichia coli. […] A solution to which the peptides were not added was considered as a negative control, and a solution to which tobramycin (TOB) was added was considered as a positive control. […] Relative values were calculated by comparison with the negative control, and these values were regarded as the viability. ATP (%) of the antibacterial activity was measured in the same manner as mentioned above, and the “minimum inhibitory concentration (MIC)” was measured as follows. MIC is the lowest concentration of an agent that may inhibit the growth of a bacterium. MIC is used as a parameter for the efficacy of an antibacterial agent, for the strength of bacterial sensitivity, or the like. The bacteria can grow (proliferate) when the concentration is not higher than MIC, and cannot grow when the concentration is higher than MIC. Its measurement is carried out according to a method defined as a standard method by Japanese Society of Chemotherapy or CLINICAL AND LABORATORY […] (CLSI), but, in this Example, its measurement was carried out by a broth microdilution method in accordance with “M100-S17/M7-A7” (Performance Standards for Antimicrobial Susceptibility Testing; Seventeenth Informational Supplement, Vol. 27 No. 1) published by CLSI on January, 2007. That is, sensitivity test of agents was carried out using a microtiter plate or test tubes. With respect to each strain, Escherichia coli: ATCC 25922 (Escherichia coli ATCC 25922), Pseudomonas aeruginosa: ATCC 27853 (Pseudomonas aeruginosa ATCC 27853), Staphylococcus aureus: ATCC29213 (Staphylococcus aureus ATCC29213), Klebsiella pneumoniae: JCM 1662 (Klebsiella pneumoniae JCM 1662), enterobacteria (1): JCM 1232 (Enterobacter cloacae JCM 1232), enterobacteria (2): JCM 1235 (Enterobacter aerogenes JCM 1235), and Staphylococcus epidermidis: JCM 2414 (Staphylococcus epidermidis JCM 2414), were used. […] As the concentrations of the agents in ATP assay, the concentrations as described in the Tables were used.

[4] = test system: Pseudomonas aeruginosa ATCC27853; test: Antibacterial activity, ATP assay (BacTiter-Glo); assay type: cell-based; conditions: for ATP (%) mean, Pseudomonas aeruginosa: Table 4-1, ATP assay concentration: peptides 10, TOB 1.0, CPFX 1.0, OX 0.5, MEPM 1.0 μg/ml
Protocol: as §1

SMILES	wound closing tension [1]	scars of cut wounds / cicatrization by visual observation, compared with the bFGF formulation [1]	decomposition in rat serum [2]	half-life [2]	remaining at 10 min, 500 μg/mL ([2]; rat, serum)	remaining at 1 h, 500 μg/mL ([2]; rat, serum)	antibacterial activity against Staphylococcus aureus compared with AG30-5C [3]	ATP (%) mean, Staphylococcus aureus [3]	antibacterial activity against Pseudomonas aeruginosa compared with AG30-5C ([4]; 10 μg/mL, ATP assay)	ATP (%) mean, Pseudomonas aeruginosa [4]	remaining at 0.5 h, 500 μg/mL ([2]; rat, serum)
CSCC[C@H](NC(=O)[C@H](CCCNC(=N)N)NC(=O)[C@H](CCCCN)NC(=O)[C@H](CC(C)C)NC(=O)[C@H](CCCNC(=N)N)NC(=O)[C@H](Cc1c[nH]cn1)NC(=O)[C@H](CC(C)C)NC(=O)[C@H](Cc1ccccc1)NC(=O)[C@H](CCCNC(=N)N)NC(=O)[C@H](CC(C)C)NC(=O)[C@@H](N)CCC(=O)O)C(=O)N[C@@H](CCCNC(=N)N)C(=O)N[C@@H](CCCCN)C(=O)N[C@@H](CCCNC(=N)N)C(=O)N[C@@H](CC(C)C)C(=O)N[C@@H](CCCCN)C(=O)N[C@@H](CCCNC(=N)N)C(=O)N[C@@H](CCCCN)C(=O)N[C@@H](CC(C)C)C(=O)N[C@@H](CCCNC(=N)N)C(N)=O [SR-3] (H-ELRFLHRLKRMRKRLKRKLR-NH2; N-terminus assumed)	effect of increasing the wound closing tension	cicatrization was hardly observed	35-55%	1.12 h	53%	44.4%	higher antibacterial activity against Staphylococcus aureus than AG30-5C	3.5%	higher antibacterial activity against Pseudomonas aeruginosa than AG30-5C	3.3%	–
CC[C@H](C)[C@H](NC(=O)[C@H](CC(C)C)NC(=O)[C@@H](N)CCCCN)C(=O)N[C@@H](Cc1ccccc1)C(=O)N[C@@H](CC(C)C)C(=O)N[C@@H](Cc1c[nH]cn1)C(=O)N[C@@H](CCCNC(=N)N)C(=O)N[C@@H](CC(C)C)C(=O)N[C@@H](CCCCN)C(=O)N[C@@H](CCCNC(=N)N)C(=O)N[C@@H](CCSC)C(=O)N[C@@H](CCCNC(=N)N)C(=O)N[C@@H](CCCCN)C(=O)N[C@@H](CCCNC(=N)N)C(=O)N[C@@H](CC(C)C)C(=O)N[C@@H](CCCCN)C(=O)N[C@@H](CCCNC(=N)N)C(=O)N[C@@H](CCCCN)C(=O)N[C@@H](CC(C)C)C(=O)N[C@@H](CCCNC(=N)N)C(N)=O [SR-4] (H-KLIFLHRLKRMRKRLKRKLR-NH2; N-terminus assumed)	effect of increasing the wound closing tension	cicatrization was hardly observed	35-55%	1.58 h	–	64.5%	higher antibacterial activity against Staphylococcus aureus than AG30-5C	1.0%	–	9.8%	95%
CSCC[C@H](NC(=O)[C@H](CCCNC(=N)N)NC(=O)[C@@H](N)CCCCN)C(=O)N[C@@H](CCCNC(=N)N)C(=O)N[C@@H](CCCCN)C(=O)N[C@@H](CCCNC(=N)N)C(=O)N[C@@H](CC(C)C)C(=O)N[C@@H](CCCCN)C(=O)N[C@@H](CCCNC(=N)N)C(=O)N[C@@H](CCCCN)C(=O)N[C@@H](CC(C)C)C(=O)N[C@@H](CCCNC(=N)N)C(=O)N[C@@H](CC(C)C)C(=O)N[C@@H](Cc1c[nH]c2ccccc12)C(=O)N[C@@H](Cc1c[nH]cn1)C(=O)N[C@@H](CCCNC(=N)N)C(=O)N[C@@H](CCCCN)C(=O)N[C@@H](CCCNC(=N)N)C(=O)N[C@@H](Cc1ccc(O)cc1)C(=O)N[C@@H](CCCCN)C(=O)O [SR-5] (H-KRMRKRLKRKLRLWHRKRYK-OH; N-terminus assumed)	effect of increasing the wound closing tension	–	completely decomposed	0.0667 h	–	0%	–	24.2%	–	16.4%	0%
